# In US10336707B2, “Heterocyclic derivatives modulating activity of certain protein kinases” (EUDENDRON S.R.L., priority 2014, dated 2019):
# Assays:
# Assay type in all cases: biochemical
# ALK F1174L (GST-His-tag) = molecular target: T1, ALK F1174L (GST-His-tag) (Homo sapiens, UniProt Q9UM73, F1174L); assay: Radiometric protein kinase assay (33PanQuinase Activity Assay), ALK F1174L; details: ATP 0.3 μM
# T1 construct: either as full-length or enzymatically active fragments; purchased ProQinase GmbH (Freiburg, Germany)
# Experimental: (§1) A proprietary radiometric protein kinase assay (33PanQuinase® Activity Assay) developed by ProQuinase GmbH (Freiburg, Germany) was used for measuring the kinase activity of selected protein kinases. All assays were performed in FlashPlates™ wells 96 Perkin Elmer (Boston, Mass., USA) in a reaction volume of 50 μl. The reaction mixture was obtained in 4 steps in the following order: • 1. 10 μl of a solution of non-radioactive ATP in water; • 2. 25 μl of assay buffer/[γ-^33P]-ATP mixture • 3. 5 μl of test sample in 10% DMSO • 4. 10 μl of enzyme/substrate mixture
# (§2) All protein kinases provided by ProQinase were expressed in Sf9 insect cells or in E. coli as recombinant GST-fusion proteins or His-tagged proteins, either as full-length or enzymatically active fragments. […] Kinases from external vendors (CAR=Carna Biosciences Inc.; INV=Life Technologies (Invitrogen Corporation); MIL=Merck-Millipore (Millipore Corporation), were expressed, purified and quality-controlled by virtue of the vendors readings.
# (§3) A stock solution of compound of formula (I) was diluted to 5×10-04M/100% DMSO. […] Incorporation of 33Pi (counting of “cpm”) was determined with a microplate scintillation counter (Microbeta, Wallac). […]
# (§4) Based on each 10 corresponding residual activities, IC50 values were calculated using Prism 5.04 for Windows (Graphpad, San Diego, Calif.). […]
# RET V804M = molecular target: T2, RET V804M (Homo sapiens, UniProt P07949, V804M); assay: Radiometric protein kinase assay (33PanQuinase Activity Assay), RET V804M; details: ATP 0.3 μM
# T2 construct: either as full-length or enzymatically active fragments; purchased ProQinase GmbH (Freiburg, Germany)
# Experimental: as §1, §2, §3, §4
# DDR2 wild-type = molecular target: T3, DDR2 wild-type (Homo sapiens, UniProt Q16832); assay: Radiometric protein kinase assay (33PanQuinase Activity Assay), DDR2 wild-type; details: ATP 1.0 μM
# T3 construct: either as full-length or enzymatically active fragments; purchased ProQinase GmbH (Freiburg, Germany)
# T3 sequence (Q16832 22-855): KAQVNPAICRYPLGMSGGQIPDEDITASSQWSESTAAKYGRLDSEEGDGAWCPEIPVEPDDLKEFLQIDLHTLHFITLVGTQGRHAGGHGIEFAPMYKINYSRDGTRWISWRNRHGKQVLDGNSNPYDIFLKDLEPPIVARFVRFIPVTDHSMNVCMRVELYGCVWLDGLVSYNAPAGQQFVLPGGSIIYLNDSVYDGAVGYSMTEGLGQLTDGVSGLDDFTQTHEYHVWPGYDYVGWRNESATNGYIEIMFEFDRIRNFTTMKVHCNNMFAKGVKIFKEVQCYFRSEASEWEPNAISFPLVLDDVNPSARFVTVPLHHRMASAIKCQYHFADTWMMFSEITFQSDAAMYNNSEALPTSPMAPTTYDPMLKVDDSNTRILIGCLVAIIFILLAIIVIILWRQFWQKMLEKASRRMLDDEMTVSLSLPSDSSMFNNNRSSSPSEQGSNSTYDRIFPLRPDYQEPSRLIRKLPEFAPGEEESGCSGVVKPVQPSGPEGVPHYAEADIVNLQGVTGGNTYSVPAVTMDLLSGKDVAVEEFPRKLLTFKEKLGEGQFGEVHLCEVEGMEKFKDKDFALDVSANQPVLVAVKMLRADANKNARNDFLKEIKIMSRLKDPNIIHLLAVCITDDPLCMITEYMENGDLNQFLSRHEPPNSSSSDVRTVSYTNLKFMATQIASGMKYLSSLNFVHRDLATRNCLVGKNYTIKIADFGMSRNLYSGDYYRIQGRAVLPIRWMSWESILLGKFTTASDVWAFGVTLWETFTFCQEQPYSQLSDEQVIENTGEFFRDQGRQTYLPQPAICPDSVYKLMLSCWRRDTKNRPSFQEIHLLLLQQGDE
# Experimental: as §1, §2, §3, §4
# TRK-B = molecular target: T4, TRK-B (Homo sapiens, UniProt Q16620); assay: Radiometric protein kinase assay (33PanQuinase Activity Assay), TRK-B; details: ATP 0.3 μM
# T4 construct: either as full-length or enzymatically active fragments; purchased ProQinase GmbH (Freiburg, Germany)
# Experimental: as §1, §2, §3, §4
# FYN = molecular target: T5, FYN (Homo sapiens, UniProt P06241); assay: Radiometric protein kinase assay (33PanQuinase Activity Assay), FYN; details: ATP 0.3 μM
# T5 construct: either as full-length or enzymatically active fragments; purchased ProQinase GmbH (Freiburg, Germany)
# Experimental: as §1, §2, §3, §4
# T4 sequence (Q16620 32-822): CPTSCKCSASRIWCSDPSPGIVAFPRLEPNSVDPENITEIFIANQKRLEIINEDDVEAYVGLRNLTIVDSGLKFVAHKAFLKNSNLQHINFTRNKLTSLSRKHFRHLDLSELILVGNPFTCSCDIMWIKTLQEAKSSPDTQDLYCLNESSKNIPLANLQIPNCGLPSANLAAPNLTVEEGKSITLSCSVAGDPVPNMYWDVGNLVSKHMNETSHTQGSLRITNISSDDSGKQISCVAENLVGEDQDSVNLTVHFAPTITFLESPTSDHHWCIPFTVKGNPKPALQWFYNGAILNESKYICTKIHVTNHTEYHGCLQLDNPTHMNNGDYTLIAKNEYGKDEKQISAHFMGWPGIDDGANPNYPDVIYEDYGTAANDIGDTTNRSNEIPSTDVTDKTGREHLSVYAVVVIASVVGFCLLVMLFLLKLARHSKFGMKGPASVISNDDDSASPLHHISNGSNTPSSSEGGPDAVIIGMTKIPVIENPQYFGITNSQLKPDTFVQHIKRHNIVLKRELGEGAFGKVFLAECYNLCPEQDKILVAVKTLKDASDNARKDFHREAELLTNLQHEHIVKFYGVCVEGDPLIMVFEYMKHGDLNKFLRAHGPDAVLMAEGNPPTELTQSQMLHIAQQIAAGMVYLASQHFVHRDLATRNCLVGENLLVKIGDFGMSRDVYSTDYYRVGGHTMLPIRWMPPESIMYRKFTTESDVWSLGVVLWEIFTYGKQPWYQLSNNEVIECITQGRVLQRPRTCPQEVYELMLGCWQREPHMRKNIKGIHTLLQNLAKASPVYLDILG
# T2 sequence (P07949 29-1114 V804M): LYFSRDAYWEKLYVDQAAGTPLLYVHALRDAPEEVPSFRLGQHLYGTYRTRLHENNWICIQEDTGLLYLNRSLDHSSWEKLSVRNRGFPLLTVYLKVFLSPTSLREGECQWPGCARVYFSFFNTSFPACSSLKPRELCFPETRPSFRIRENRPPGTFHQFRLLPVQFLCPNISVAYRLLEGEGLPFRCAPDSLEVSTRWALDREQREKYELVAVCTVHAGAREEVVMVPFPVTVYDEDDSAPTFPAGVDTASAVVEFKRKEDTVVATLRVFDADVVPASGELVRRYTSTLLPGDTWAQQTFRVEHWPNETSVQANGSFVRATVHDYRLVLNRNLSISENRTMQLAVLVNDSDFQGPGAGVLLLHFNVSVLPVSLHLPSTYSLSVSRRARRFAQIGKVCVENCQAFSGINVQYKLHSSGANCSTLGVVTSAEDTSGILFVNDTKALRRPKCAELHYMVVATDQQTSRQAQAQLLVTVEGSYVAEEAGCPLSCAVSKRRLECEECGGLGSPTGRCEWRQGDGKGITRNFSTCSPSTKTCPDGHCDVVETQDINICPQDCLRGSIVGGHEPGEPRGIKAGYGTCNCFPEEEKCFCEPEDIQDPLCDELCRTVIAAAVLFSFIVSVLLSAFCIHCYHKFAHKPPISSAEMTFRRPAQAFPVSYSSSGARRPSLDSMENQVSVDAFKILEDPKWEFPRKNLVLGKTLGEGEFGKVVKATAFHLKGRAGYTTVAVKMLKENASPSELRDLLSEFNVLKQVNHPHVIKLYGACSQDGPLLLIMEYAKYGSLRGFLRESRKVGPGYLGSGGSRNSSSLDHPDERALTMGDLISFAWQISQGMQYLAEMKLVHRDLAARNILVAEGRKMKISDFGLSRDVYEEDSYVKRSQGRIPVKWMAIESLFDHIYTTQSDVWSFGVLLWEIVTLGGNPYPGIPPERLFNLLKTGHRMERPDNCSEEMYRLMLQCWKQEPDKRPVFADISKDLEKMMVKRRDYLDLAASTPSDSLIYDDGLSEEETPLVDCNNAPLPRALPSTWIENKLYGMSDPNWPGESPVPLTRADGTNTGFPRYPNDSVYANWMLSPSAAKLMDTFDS
# T5 sequence (P06241 whole entry, the tested form may be a part): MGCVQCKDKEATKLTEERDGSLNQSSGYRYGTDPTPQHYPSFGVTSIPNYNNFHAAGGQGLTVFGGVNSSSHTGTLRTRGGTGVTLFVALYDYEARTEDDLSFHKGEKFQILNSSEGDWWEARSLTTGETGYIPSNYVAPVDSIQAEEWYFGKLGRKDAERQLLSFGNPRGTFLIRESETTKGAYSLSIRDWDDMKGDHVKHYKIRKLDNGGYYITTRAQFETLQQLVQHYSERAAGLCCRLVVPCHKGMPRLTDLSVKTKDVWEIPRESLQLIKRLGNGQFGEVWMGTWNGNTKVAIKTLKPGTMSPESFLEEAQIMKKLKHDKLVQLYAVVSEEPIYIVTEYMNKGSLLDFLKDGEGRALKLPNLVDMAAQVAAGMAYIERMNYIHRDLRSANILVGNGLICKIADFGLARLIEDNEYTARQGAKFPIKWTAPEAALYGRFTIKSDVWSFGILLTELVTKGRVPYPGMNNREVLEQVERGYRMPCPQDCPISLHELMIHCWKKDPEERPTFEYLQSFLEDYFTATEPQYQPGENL
# T1 sequence (Q9UM73 19-1620 F1174L): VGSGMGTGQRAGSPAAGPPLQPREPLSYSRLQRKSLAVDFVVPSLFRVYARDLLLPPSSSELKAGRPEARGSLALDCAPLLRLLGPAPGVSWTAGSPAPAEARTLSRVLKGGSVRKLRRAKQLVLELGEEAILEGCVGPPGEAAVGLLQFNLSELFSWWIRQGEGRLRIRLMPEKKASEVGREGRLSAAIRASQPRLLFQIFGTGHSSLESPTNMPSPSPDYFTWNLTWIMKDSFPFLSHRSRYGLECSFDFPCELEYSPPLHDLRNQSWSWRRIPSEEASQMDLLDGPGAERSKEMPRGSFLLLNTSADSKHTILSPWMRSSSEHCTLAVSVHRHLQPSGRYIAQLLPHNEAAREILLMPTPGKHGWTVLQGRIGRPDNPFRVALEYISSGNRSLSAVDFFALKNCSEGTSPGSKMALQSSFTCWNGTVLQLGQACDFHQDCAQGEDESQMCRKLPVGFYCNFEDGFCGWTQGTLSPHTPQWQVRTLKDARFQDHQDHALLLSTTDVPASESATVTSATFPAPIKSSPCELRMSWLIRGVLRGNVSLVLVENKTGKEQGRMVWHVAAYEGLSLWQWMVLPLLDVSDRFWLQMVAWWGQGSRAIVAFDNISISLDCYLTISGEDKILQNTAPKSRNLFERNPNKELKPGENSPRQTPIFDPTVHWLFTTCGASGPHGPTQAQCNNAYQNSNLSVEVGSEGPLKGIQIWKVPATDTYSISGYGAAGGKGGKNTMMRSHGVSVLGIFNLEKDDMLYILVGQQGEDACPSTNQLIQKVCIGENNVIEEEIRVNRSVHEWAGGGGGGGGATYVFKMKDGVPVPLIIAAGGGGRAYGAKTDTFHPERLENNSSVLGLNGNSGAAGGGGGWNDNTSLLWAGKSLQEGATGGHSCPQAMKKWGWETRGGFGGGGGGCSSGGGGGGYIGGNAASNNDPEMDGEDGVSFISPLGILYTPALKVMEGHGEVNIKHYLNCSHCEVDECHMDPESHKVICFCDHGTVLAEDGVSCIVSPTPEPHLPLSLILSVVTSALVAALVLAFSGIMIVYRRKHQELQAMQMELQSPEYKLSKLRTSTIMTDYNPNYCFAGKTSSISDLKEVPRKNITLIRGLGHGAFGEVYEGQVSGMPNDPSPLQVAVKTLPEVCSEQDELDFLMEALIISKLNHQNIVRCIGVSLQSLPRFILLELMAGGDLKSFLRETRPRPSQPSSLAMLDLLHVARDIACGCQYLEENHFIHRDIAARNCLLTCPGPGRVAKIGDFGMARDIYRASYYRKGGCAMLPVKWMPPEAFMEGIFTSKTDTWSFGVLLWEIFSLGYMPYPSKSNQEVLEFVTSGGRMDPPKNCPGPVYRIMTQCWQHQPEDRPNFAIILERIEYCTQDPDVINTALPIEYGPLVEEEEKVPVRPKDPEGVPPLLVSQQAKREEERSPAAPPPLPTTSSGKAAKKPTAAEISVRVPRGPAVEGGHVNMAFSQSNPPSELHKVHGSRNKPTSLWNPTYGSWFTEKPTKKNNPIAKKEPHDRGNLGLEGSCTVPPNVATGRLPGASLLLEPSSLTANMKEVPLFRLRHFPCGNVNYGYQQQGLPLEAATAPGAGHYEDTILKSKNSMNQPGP
compound,measurement,setting,value
"CN1CCN(c2ccc(C(=O)Nc3n[nH]c4cc(-c5ccc(O)cc5)c(Cc5cc(F)cc(F)c5)cc34)c(NC3CCOCC3)c2)CC1 [Example 3, N-[5-[(3,5-difluorophenyl)methyl]-6-(4-hydroxyphenyl)-1H-indazol-3-yl]-4-(4-methylpiperazin-1-yl)-2-(tetrahydropyran-4-ylamino)benzamide]",IC50,ALK F1174L (GST-His-tag),46 nM
same,IC50,RET V804M,85 nM
same,IC50,DDR2 wild-type,150 nM
same,IC50,TRK-B,88 nM
same,IC50,FYN,34 nM
